The subject of one series is HL-60 (Leukemia). The experiment in a line: Cytotoxicity, MTT assay, HL-60. As to conditions: Homo sapiens; for inhibition at 10 µM: read-out: Cell Growth Inhibition (%). The series is classed as cell-based. The protocol:
(§1) Compounds proposed in the present invention were evaluated for their cytotoxic effect against panel of six cancer cell line viz. HL-60 (Leukemia), PC-3 (Prostate), A-375 (Melanoma), MIAPaCa-2 (pancreatic), MCF-7 (Breast) and Caco-2 (Colon) using MTT assay. In each well of a 96-well plate, 3×10^3 cells were grown in 100 μL of medium. After 24 h, each test molecules were added to achieve a final concentration of 10 to 0.01 μmol/L, respectively. After 48 h of treatment, 20 μL of 2.5 mg/mL MTT (Organics Research, Inc.) solution in phosphate buffer saline was added to each well. After 48 h, supernatant was removed and formazan crystals were dissolved in 200 μL of DMSO. Absorbance was then measured at 570 nm using an absorbance plate reader (Bio-Rad Microplate Reader). Data are expressed as the percentage of viable cells in treated relative to non-treated conditions.

A further series concerns PC-3 (Prostate). Nature of the series: Cytotoxicity, MTT assay, PC-3. The series is classed as cell-based. The following applies: for inhibition at 10 µM: read-out: Cell Growth Inhibition (%). How it is done: as §1
The next series relates to A-375 (Melanoma). The experiment in a line: Cytotoxicity, MTT assay, A-375. The series is classed as cell-based. As to conditions: Homo sapiens; for inhibition at 10 µM: read-out: Cell Growth Inhibition (%). The protocol: as §1
For another series, the system named is MIAPaCa-2 (pancreatic). Nature of the series: Cytotoxicity, MTT assay, MIAPaCa-2. The series is classed as cell-based. As to conditions: Homo sapiens, MIA PaCa-2, read-out: Cell Growth Inhibition (%). How it is done:
as §1
On the technique in general: Tetrazolium assays rely on reduction of a dye to a coloured formazan, in cell work by metabolically active cells.

The next series concerns MCF-7 (Breast). Nature of the series: Cytotoxicity, MTT assay, MCF-7. The series is classed as cell-based. The following applies: Homo sapiens; for inhibition at 10 µM: MCF7, 10 μM, read-out: Cell Growth Inhibition (%); for IC50: MCF7. How it is done:
as §1

In the next series the test system is Caco-2 (Colon). Nature of the series: Cytotoxicity, MTT assay, Caco-2. The series is classed as cell-based. The following applies: Homo sapiens; for inhibition at 10 µM: read-out: Cell Growth Inhibition (%). How it is done:
as §1

The next series has as its target CDK-2/cyclin A (Homo sapiens (Human), UniProt P24941). The experiment in a line: Inhibition of CDK-2/cyclin A. The series is classed as biochemical.
For the next series, the target named is CDK-9/Cyclin T1 (Homo sapiens (Human), UniProt P50750). Nature of the series: Inhibition of CDK-9/cyclin T1. As to conditions: IC50 (nM) CDK-9/T1.
Series [1] relates to Ehrlich solid tumor (EAC cells). The experiment in a line: In vivo anticancer activity in Ehrlich solid tumor mice model. On the set-up: species or system Swiss mice. The following applies: 22 mg/kg i/p day 1-9, positive control. How it is done: Ehrlich ascites carcinoma (EAC) cells were collected from the peritoneal cavity of the swiss mice harbouring 8-10 days old ascitic tumor. 1×10^7 EAC cells were injected intramuscularly in right thigh of 31 Swiss male mice selected for the experiment on day 0. The next day, animals were randomized and divided into four groups. Three treatment groups contained 7 animals each and one control group contained 10 animals. Treatment was given as follows:
Group I: Compound 33 (50 mg/kg i/p) from day 1-9.
Group II: Compound 33 (70 mg/kg i/p) from day 1-9.
The third treatment group was treated with 5-fluorouracil (22 mg/kg, i.p) from day 1-9 and it served as positive control. The control group was similarly administered normal saline (0.2 ml, i.p.) from day 1-9. On day 9 & 13, tumor bearing thigh of each animal was shaved and longest and shortest diameters of the tumor were measured with the help of vernier caliper. Tumor weight of each animal was calculated using the following formula.
The percent tumor growth inhibition was calculated on day 13 by comparing the average values of treated groups with that of control group. Tumor growth in saline treated control animals was taken to be 100%.

Series [2] can be described thus: Thermodynamic equilibrium solubility. As to conditions: 25 °C, thermodynamic from solid. The series is classed as physicochemical. How it is done: The compounds were first dissolved in methanol to prepare stock solutions (100 and 1000 μg/mL). Different concentrations of stock solutions were pipetted into the 96-well plates and the solvent was evaporated to ensure that solid drug was present in the beginning of the experiment. […] The plates were kept overnight for equilibration of drug in medium. Later, the plates were centrifuged at 3000 rpm for 15 min (Jouan centrifuge BR4i). Supernatant (50 μl) was pipetted into UV 96-well plates (Corning® 96 Well Clear Flat Bottom UV-Transparent Microplate) for analyses with plate reader (SpectraMax Plus384) at λmax of 350 nm. The analyses were performed in triplicate for each compound. The solubility curve of concentration (μg/mL) vs absorbance was plotted to find out saturation point and the corresponding concentration was noted (Heikkilä, T. et al. Int. J. Pharm. 2011, 405, 132).

The mark [3] stands for this setting: water, 25±1° C., read-out: Solubility in μg/mL, Water.
The mark [4] stands for this setting: phosphate buffer saline (PBS), aqueous buffer, read-out: Solubility in μg/mL, PBS.
The mark [5] stands for this setting: simulated gastric fluid (SGF), simulated gastric fluid, read-out: Solubility in μg/mL, SGF.
The mark [6] stands for this setting: simulated intestinal fluid (SIF), fassgf or other biorelevant, read-out: Solubility in μg/mL, SIF.

The structures appear in SMILES notation. ≈ marks a conversion by molar mass, not a printed value. Read-outs that look alike come from different tables or passages of the source.

Sequence of CDK-9/Cyclin T1 (P50750 whole entry): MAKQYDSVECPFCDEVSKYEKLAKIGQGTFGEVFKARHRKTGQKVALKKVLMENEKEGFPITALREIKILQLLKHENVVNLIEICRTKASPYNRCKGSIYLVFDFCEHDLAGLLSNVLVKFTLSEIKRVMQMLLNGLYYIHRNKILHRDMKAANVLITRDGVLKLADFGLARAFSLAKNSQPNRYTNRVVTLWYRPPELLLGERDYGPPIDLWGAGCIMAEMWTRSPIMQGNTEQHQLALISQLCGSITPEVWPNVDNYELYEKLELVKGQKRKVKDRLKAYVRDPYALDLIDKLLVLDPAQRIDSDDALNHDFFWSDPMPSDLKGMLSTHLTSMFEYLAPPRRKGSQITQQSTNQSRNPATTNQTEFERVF
Sequence of CDK-9/Cyclin T1 (O60563 whole entry partner): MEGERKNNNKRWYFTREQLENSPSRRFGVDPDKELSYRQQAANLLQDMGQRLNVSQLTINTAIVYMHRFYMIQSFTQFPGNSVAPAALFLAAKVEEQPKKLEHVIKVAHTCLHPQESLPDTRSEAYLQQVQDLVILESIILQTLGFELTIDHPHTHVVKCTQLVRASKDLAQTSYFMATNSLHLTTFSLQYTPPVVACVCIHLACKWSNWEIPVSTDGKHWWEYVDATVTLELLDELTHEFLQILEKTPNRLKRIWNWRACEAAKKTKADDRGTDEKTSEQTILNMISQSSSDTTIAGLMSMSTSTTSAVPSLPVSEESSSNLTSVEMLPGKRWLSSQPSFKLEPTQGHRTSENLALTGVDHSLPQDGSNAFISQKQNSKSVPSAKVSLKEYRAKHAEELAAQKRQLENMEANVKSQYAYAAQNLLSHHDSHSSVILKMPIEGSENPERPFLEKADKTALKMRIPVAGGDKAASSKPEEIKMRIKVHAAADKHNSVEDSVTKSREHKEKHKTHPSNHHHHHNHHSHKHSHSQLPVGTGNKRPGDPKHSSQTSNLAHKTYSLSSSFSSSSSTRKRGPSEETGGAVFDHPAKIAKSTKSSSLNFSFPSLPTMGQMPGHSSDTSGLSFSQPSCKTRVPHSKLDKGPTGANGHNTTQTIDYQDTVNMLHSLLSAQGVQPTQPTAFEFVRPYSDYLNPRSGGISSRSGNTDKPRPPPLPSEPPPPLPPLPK
Experimental for CDK-9/Cyclin T1: (50-1000 cpm/pmole) and incubated for 30 mM at room temperature. Assays were stopped by addition of 5 μl of 0.5 M (3%) orthophosphoric acid and then harvested onto P81 Unifilter plates with a wash buffer of 50 mM orthophosphoric acid.

As to `Cc1cc(=O)c2c(O)cc(O)c(C3CCN(C)CC3O)c2o1` (stereo not shown) [Compound 1, 5,7-dihydroxy-8-(3-hydroxy-1-methylpiperidin-4-yl)-2-methyl-4H-chromen-4-one, reference compound], the IC50 in the series with HL-60 (Leukemia) was 6 µM; at CDK-2/cyclin A it was greater than 10000 nM; against CDK-9/Cyclin T1, 550 nM. Further, the inhibition at 10 µM in the series with HL-60 (Leukemia) amounted to 83.3%; with PC-3 (Prostate) it was 32.9%; in the series with A-375 (Melanoma), 41.2%; in the series on MIAPaCa-2 (pancreatic) it was 1.46%; with MCF-7 (Breast) it was 15.4%; in the series on Caco-2 (Colon), 11.9%.
`O=c1[nH]cc(F)c(=O)[nH]1` [Compound 5-FU, 5-fluorouracil, reference compound]: in [1], the “Day 13 % Tumor Growth Inhibition” value is on record as 58.50%, the “Day 13 Av. Tumor weights” value is recorded as 613.71 mg and the Mortality is recorded as 0/7.
The compound `Cc1oc2c(C3CCN(C)CC3O)c(O)cc(O)c2c(=O)c1C(O)c1ccc(Cl)cc1` (stereo not shown) [Compound 14, 3-((4-Chlorophenyl)(hydroxy)methyl)-5,7-dihydroxy-8-(3-hydroxy-1-methylpiperidin-4-yl)-2-methyl-4H-chromen-4-one] gave an IC50 in the series with HL-60 (Leukemia) of 11 µM. Also, the inhibition at 10 µM in the series on HL-60 (Leukemia) was determined as 1.93%; in the series on PC-3 (Prostate) it was 41%; in the series with A-375 (Melanoma) it was 34.2%; with MIAPaCa-2 (pancreatic), 14.8%; in the series on MCF-7 (Breast) it was 5.91%; with Caco-2 (Colon) it was 2.83%.
For the compound `Cc1oc2c(C3CCN(C)CC3O)c(O)cc(O)c2c(=O)c1C(O)c1ccccc1Br` (stereo not shown) [Compound 15, 3-((2-Bromophenyl)(hydroxy)methyl)-5,7-dihydroxy-8-(3-hydroxy-1-methylpiperidin-4-yl)-2-methyl-4H-chromen-4-one], the inhibition at 10 µM in the series with HL-60 (Leukemia) came to 52%; in the series on PC-3 (Prostate) it was 44.5%; with A-375 (Melanoma), 22.4%; with MIAPaCa-2 (pancreatic), 10.1%; with MCF-7 (Breast) it was 20.6%; in the series on Caco-2 (Colon), 6.62%.
Regarding `Cc1oc2c(C3CCN(C)CC3O)c(O)cc(O)c2c(=O)c1C(O)c1cccc(Cl)c1` (stereo not shown) [Compound 17, 3-((3-Chlorophenyl)(hydroxy)methyl)-5,7-dihydroxy-8-(3-hydroxy-1-methylpiperidin-4-yl)-2-methyl-4H-chromen-4-one], the inhibition at 10 µM in the series with HL-60 (Leukemia) is 22.2%; with PC-3 (Prostate) it was 31%; in the series with A-375 (Melanoma), 34.9%; in the series on MIAPaCa-2 (pancreatic), 1.52%; with MCF-7 (Breast), 5.01%; with Caco-2 (Colon) it was 4.42%.
For `Cc1oc2c(C3CCN(C)CC3O)c(O)cc(O)c2c(=O)c1C(O)c1c(F)cccc1Cl` (stereo not shown) [Compound 21, 3-((2-Chloro-6-fluorophenyl)(hydroxy)methyl)-5,7-dihydroxy-8-(3-hydroxy-1-methylpiperidin-4-yl)-2-methyl-4H-chromen-4-one], the inhibition at 10 µM came out at 25.4% in the series with HL-60 (Leukemia); 72.5% with PC-3 (Prostate); 20.8% in the series with A-375 (Melanoma); 8.58% in the series on MIAPaCa-2 (pancreatic); 13.6% in the series on MCF-7 (Breast); 5.94% in the series on Caco-2 (Colon).
For `CN1CCC(c2c(O)cc(O)c3c(=O)cc(/C=C/c4cccc(Cl)c4)oc23)C(O)C1` (stereo not shown) [Compound 28, 2-(3-Chlorostyryl)-5,7-dihydroxy-8-(3-hydroxy-1-methylpiperidin-4-yl)-4H-chromen-4-one], the inhibition at 10 µM with HL-60 (Leukemia) came to 24.3%; in the series with PC-3 (Prostate), 53.7%; in the series with A-375 (Melanoma), 65.9%; with MIAPaCa-2 (pancreatic) it was 40.3%; in the series on MCF-7 (Breast) it was 80.4%; in the series on Caco-2 (Colon), 27.5%. For the same compound, the IC50 came out at 10 µM with PC-3 (Prostate), 4 µM with A-375 (Melanoma) and 2 µM in the series on MCF-7 (Breast).
Turning to `CN1CCC(c2c(O)cc(O)c3c(=O)cc(/C=C/c4c5ccccc5cc5ccccc45)oc23)C(O)C1` (stereo not shown) [Compound 29, 2-((E)-2-(Anthracen-10-yl)vinyl)-5,7-dihydroxy-8-(3-hydroxy-1-methylpiperidin-4-yl)-4H-chromen-4-one], the inhibition at 10 µM turned out to be 12.1% in the series on HL-60 (Leukemia); 50.5% with PC-3 (Prostate); 4.96% with A-375 (Melanoma); 17% in the series on MIAPaCa-2 (pancreatic); 12.7% in the series with MCF-7 (Breast); 0% with Caco-2 (Colon). This compound gave an IC50 with PC-3 (Prostate) of 12 µM.
Take `CN1CCC(c2c(O)cc(O)c3c(=O)cc(/C=C/c4ccccc4F)oc23)C(O)C1` (stereo not shown) [Compound 30, 2-(2-Fluorostyryl)-5,7-dihydroxy-8-(3-hydroxy-1-methylpiperidin-4-yl)-4H-chromen-4-one]: the half-inhibitory concentration (IC50) turned out to be 8 µM in the series on HL-60 (Leukemia); 7 µM in the series with PC-3 (Prostate); 7 µM with A-375 (Melanoma); 3 µM with MCF-7 (Breast); 8 µM in the series with Caco-2 (Colon). Further, the inhibition at 10 µM with HL-60 (Leukemia) worked out at 80.5%; in the series with PC-3 (Prostate), 72.2%; in the series with A-375 (Melanoma), 54.1%; in the series with MIAPaCa-2 (pancreatic), 21.3%; with MCF-7 (Breast), 81.1%; in the series with Caco-2 (Colon), 51%.
In the case of `CN1CCC(c2c(O)cc(O)c3c(=O)cc(/C=C/c4c(F)c(F)c(F)c(F)c4F)oc23)C(O)C1` (stereo not shown) [Compound 34, 2-(2,3,4,5,6-pentafluorostyryl)-5,7-dihydroxy-8-(3-hydroxy-1-methylpiperidin-4-yl)-4H-chromen-4-one], the IC50 stood at 3 µM with HL-60 (Leukemia); 30 µM in the series with PC-3 (Prostate); 8 µM in the series with A-375 (Melanoma); 4 µM with MCF-7 (Breast); 7 µM in the series on Caco-2 (Colon); 608 nM against CDK-2/cyclin A. This compound yielded an IC50 against CDK-9/Cyclin T1 of 12 nM. Besides, the solubility was 5 µg/mL (≈ 10.3 µM) in [2] (setting [3]), 10 µg/mL (≈ 20.7 µM) in [2] (setting [4]), 80 µg/mL (≈ 165 µM) in [2] (setting [5]) and 20 µg/mL (≈ 41.4 µM) in series [2] (setting [6]).
In the case of `CN1CCC(c2c(O)cc(O)c3c(=O)cc(/C=C/c4cccc(F)c4)oc23)C(O)C1` (stereo not shown) [Compound 35, 2-(3-fluorostyryl)-5,7-dihydroxy-8-(3-hydroxy-1-methylpiperidin-4-yl)-4H-chromen-4-one], the IC50 on CDK-2/cyclin A is 466 nM; at CDK-9/Cyclin T1, 30 nM.
For `CN1CCC(c2c(O)cc(O)c3c(=O)cc(/C=C/c4c(Cl)cccc4Cl)oc23)C(O)C1.Cl` (stereo not shown) [Hydrochloride salt of 33, 2-(2,6-dichlorostyryl)-5,7-dihydroxy-8-(3-hydroxy-1-methylpiperidin-4-yl)-4H-chromen-4-one hydrochloride], the solubility in [2] (setting [3]) was greater than 1500 µg/mL; in series [2] (setting [4]) it was 40 µg/mL; in [2] (setting [5]), 40 µg/mL; in series [2] (setting [6]) it was 10 µg/mL.
As to `CN1CCC(c2c(O)cc(O)c3c(=O)cc(/C=C/c4c(F)c(F)c(F)c(F)c4F)oc23)C(O)C1.Cl` (stereo not shown) [Hydrochloride salt of 34, 2-(2,3,4,5,6-pentafluorostyryl)-5,7-dihydroxy-8-(3-hydroxy-1-methylpiperidin-4-yl)-4H-chromen-4-one hydrochloride], the solubility was greater than 1500 µg/mL in series [2] (setting [3]), 40 µg/mL in series [2] (setting [4]), 80 µg/mL in [2] (setting [5]) and 40 µg/mL in series [2] (setting [6]).

In general, IC50 refers to the concentration that gives 50% inhibition. A word on the inhibition: it is the percentage by which the read-out fell short of the control.

The values are drawn from patent US9932327B2, “Rohitukine analogs as cyclin-dependent kinase inhibitors and a process for the preparation thereof” (COUNCIL OF SCIENTIFIC AND INDUSTRIAL RESEARCH, priority 2013, dated 2018).
